The nature of experiment [1]: Inhibition of HDAC by fluorescence assay.
The next experiment has as its system HCT-116. The experiment can be described thus: Anticancer activity against human HCT116 cells after 72 hrs by MTT assay. Format: functional. Background: Tetrazolium dyes change colour on reduction, which living cells bring about.
The next experiment has as its system MDA-MB-231. In words: Anticancer activity against human MDA-MB-231 cells after 72 hrs by MTT assay. It is filed as functional.
The test system of experiment [2] is DU-145. In words: Anticancer activity against human DU145 cells after 72 hrs by MTT assay. It is filed as functional.
The subject of the next experiment is A2780. The experiment can be described thus: Anticancer activity against human A2780 cells after 72 hrs by MTT assay. It is filed as functional.
Experiment [3] can be described thus: Ratio of MS-275 IC50 to compound IC50 to for HDAC.
Experiment [4] concerns DU-145. In words: Ratio of MS-275 GI to compound GI for human DU145 cells. It is filed as functional.

pIC50: −log10 of the molar value.

The text below walks through data of ChEMBL document CHEMBL1806487, “Design, synthesis and docking studies on benzamide derivatives as histone deacetylase inhibitors” (Bioorg Med Chem Lett, 2011).

As usually defined, the pIC50 is the negative decadic logarithm of the IC50, by convention in mol/L. A higher pIC50 goes with a small IC50.

In turn, `Nc1ccc(C(=O)NCC(=O)c2ccc(C(=O)Nc3ccccc3N)cc2)cc1` gave a pIC50 in experiment [1] of 4.30.

For the molecule `Nc1ccccc1NC(=O)c1ccc(CNC(=O)OCc2cccnc2)cc1` [ENTINOSTAT], in experiment [1], the pIC50 is 4.89. Further, the GI in the experiment on HCT-116 came to 3.1 µM; with MDA-MB-231, 2.8 µM; in the experiment on DU-145 [2] it was 7.9 µM; with A2780, 5.7 µM.

Turning to `Nc1cc(C(=O)NCC(=O)c2ccc(C(=O)Nc3ccccc3N)cc2)ccn1`, in experiment [1], the pIC50 was 4.37.

Regarding `Nc1ccccc1NC(=O)c1ccc(C(=O)CNC(=O)c2ccccn2)cc1`, the pIC50 in experiment [1] is 4.52. The pIC50 values of the last two molecules are within 0.2 log units of each other.

Molecule `Cc1ccc(S(=O)(=O)NCC(=O)c2ccc(C(=O)Nc3ccccc3N)cc2)cc1` showed a pIC50 in experiment [1] of 4.65. The GI in the experiment with HCT-116 was 18.7 µM; in the experiment with MDA-MB-231, 18.4 µM; with DU-145 [2], 37.7 µM; in the experiment with A2780 it was greater than 100 µM. In experiment [3], the Ratio IC50 was 4.

Take `Nc1cccc(C(=O)NCC(=O)c2ccc(C(=O)Nc3ccccc3N)cc2)c1`: the pIC50 in experiment [1] was 4.15.

For `Nc1ccc(S(=O)(=O)NCC(=O)c2ccc(C(=O)Nc3ccccc3N)cc2)cc1`, the pIC50 in experiment [1] is 5.42. Moreover, the GI with DU-145 [2] came out at 0.16 µM; with A2780, 5.7 µM. The Ratio with DU-145 [4] came out at 50.

`Nc1ccccc1NC(=O)c1ccc(C(=O)CNC(=O)c2ccccc2)cc1`: in experiment [1], the pIC50 was less than 4.00.

In experiment [1], `Nc1ccccc1NC(=O)c1ccc(C(=O)CNS(=O)(=O)c2cccnc2Cl)cc1` had a pIC50 of 4.95.
